Laboratory results taken from patent EP0499337A1, “Use of tetra:hydro-thieno-pyrido-indole derivatives for the treatment of skin disorders” (YAMANOUCHI EUROPE B.V., priority 1991, dated 1992).
Like-named read-outs stand apart in the source and are kept apart here.

Columns and labels:
NHEK = assay: Keratinocyte proliferation, neutral red assay (number of viable attached cells); format: cell-based; details: Homo sapiens, Ca²⁺ concentration low (0.06 mM), read-out: keratinocyte proliferation IC₅₀ values
Method: (§1) On day 0, 5,000 cells in 100 µl were plated per well in a 96-well cluster plate (Greiner), either in the medium as stated above, or in MCDB153 medium (Clonetics) under low calcium conditions. On day 1 100 µl medium containing increasing concentrations of test agents were added to each well. On day 4, 50 µl of 0.05% neutral red (Gurr) solution in 0.9% NaCl was added per well and the cells were reincubated for 3 h at 37°C. After washing with PBS, the cells were lyzed by addition of 100 µl of 50% ethanol in 0.05 M NaH₂PO₄ per well. After vigorous shaking, the optical extinction was measured at 550 nm. […] Meth., 9: 7). All determinations were performed in octuple. IC₅₀-values (the concentration inhibiting cell numbers by 50%) were determined (µM).

SVK₁₄ = assay: as above; format: cell-based; details: Homo sapiens
Method: as §1

[1] = system: Normal human keratinocytes; assay: Cornified envelope formation (keratinocyte differentiation); format: cell-based; details: 4 h plus 48 h exposure, increasing concentrations
Method: Normal human keratinocytes were grown to confluence at low calcium concentration in the presence of 5% FCS, 1 µM isoproterenol and 10 ng EGF per ml. They were first exposed for 4 h to increasing concentrations of test compounds and subsequently reincubated for 48 h in medium containing normal calcium concentration and the same additives, test compounds and [³H]-leucine (1 µCi/ml). Thereafter, both spontaneous and ionophore-induced cornified envelope (CE) formation was determined [King et al. (1986) Exp. Cell. Res., 167: 252].

HaCaT cells = assay: Keratinocyte morphology, phase contrast microscopy; format: cell-based, human; details: 10 µM, monitored during 72 hours
Method: HaCaT cells were cultured under standard conditions. 24 h after plating (2.5 x 10⁶ cells) the medium was replaced by medium containing the test compounds. During 72 hours cell morphology was frequently monitored using a phase contrast photomicroscope (Olympus IMT-2, Tokyo, Japan).

[2] = system: PKC from the central nervous system; assay: Phosphorylation of synaptosomal plasma membranes: B-50 phosphorylation; format: biochemical; details: for phosphorylation of B-50 (% of control): without addition of CaM
Method: Subcellular fractionation and phosphorylation assay were performed according to Kristjansson et al., (1982). […] After a preincubation at 30°C for 5 min, the phosphorylation reaction was started by adding the ATP. The reaction was stopped after 15 sec. All compounds to be tested were present at the start of the preincubation. […]

50 kDa protein = assay: Phosphorylation of synaptosomal plasma membranes: CaM-dependent phosphorylation of the 50 kDa protein; format: biochemical; details: in the presence of exogenous CaM (3 units/assay); read-out: IC₅₀-value, CaM-dependent phosphorylation of the 50 kDa protein
Method: Subcellular fractionation and phosphorylation assay were performed according to Kristjansson et al., (1982). […] After a preincubation at 30°C for 5 min, the phosphorylation reaction was started by adding the ATP. The reaction was stopped after 15 sec. All compounds to be tested were present at the start of the preincubation. […] Phosphorylation of B-50 and the 50 kDa protein, which was only phosphorylated after addition of CaM, was measured in the presence of exogenous CaM (3 units/assay) and quantified.

rat brain synaptosomes = assay: Noradrenaline release from permeated synaptosomes; format: cell-based; details: 100 µM to 1 µM; low (10 nM) and high (10 µM) Ca²⁺
Method: Highly purified synaptosomes were prepared according to Dunkley and Robinson (1987). The synaptosomes were diluted with 3 ml buffer A (123 mM NaCl, 5 mM KCl, 2 mM CaCl₂, […], 1.15 mM NaH₂PO₄, 5.6 mM glucose, 20 mM PIPES pH 6.8, gassed with O₂:CO₂, 95:5) and incubated for 15 min at 37°C. Then 2.5 µCi noradrenalin (NA) was added, incubation was continued for 15 min and the synaptosomes were centrifuged for 20 min at 600 x g. The resulting pellet was washed twice in buffer A without CaCl₂ and resuspended (1 mg protein/ml).
For measurement of NA release, prelabeled synaptosomes were incubated at 37°C in buffer A containing Na₂ATP and EGTA-buffered Ca²⁺ in concentrations as indicated (final volume 120 µl). The release reaction was started by adding synaptosomes (20 µg protein) to the reaction mixture and terminated after 5 min by 30 sec centrifugation at 10,000 x g. The supernatant (90 µl) was collected and counted in a Packard Model 2,000 CA liquid scintillation counter with Picofluor as a scintillation cocktail. NA release was expressed as % of total [³H]-NA incorporated. Total NA incorporation was determined by measuring [³H]-incorporation in 20 µg prelabeled washed synaptosomes.

calmodulin = calmodulin (Homo sapiens, UniProt P0DP23); details: Schmidt et al. (1990); cited from earlier work

CCN1CCc2[nH]c3cc(F)c4scc(C)c4c3c2C1 [Tiflucarbine, 1-methyl-9-ethyl-4-fluoro-7,8,9,10-tetra:hydro-thieno-[3,2-e]-pyrido-[4,3-b]-indole lactate]
IC50 (NHEK): 10 µM | IC50 (SVK₁₄; SVK₁₄, Ca²⁺ concentration normal (1.6 mM), read-out: keratinocyte proliferation IC₅₀ values): 12.5 µM | IC50 (SVK₁₄; read-out: keratinocyte proliferation IC₅₀ values, SVK₁₄, Ca²⁺ concentration low (0.06 mM)): 7.5 µM | spontaneous CE formation [1]: no effect | effect on morphology (HaCaT cells): no effect | B-50 phosphorylation ([2]; in the presence of exogenous CaM (3 units/assay)): did not inhibit B-50 phosphorylation | phosphorylation of B-50 (% of control) ([2]; concentration 1 µM): 82 ± 14 % of control | phosphorylation of B-50 (% of control) ([2]; concentration 10 µM): 110 ± 15 % of control | phosphorylation of B-50 (% of control) ([2]; concentration 100 µM): 92 ± 9 % of control | phosphorylation of B-50 (% of control) ([2]; concentration l mM): 95 ± 11 % of control | IC50 (50 kDa protein): < 1 µM | noradrenaline release (rat brain synaptosomes): did not display any significant effects | binding to calmodulin (calmodulin): bind to calmodulin
